Measured values published in patent EP3265461B1, “VERBASCOSIDE DERIVATIVES” (Croda Italiana S.p.A., priority 2015, dated 2016).

Tests used:
[1] = tested on: platelet aggregation (PA); assay: Phase II study: arachidonic acid-induced platelet aggregation by light transmission aggregometry; assay type: in vivo, human; settings: platelets stimulated with 1 µM AA
Protocol: (§1) A randomized, double-blind Phase II study was conducted to evaluate verbascoside activity in modulating the platelet aggregation (PA) values on subjects with at least one cardiovascular risk factor, selected from: age over 65 years, diabetes mellitus, hypertension, smoke, hyperlipidemia, waist circumference greater than 102 cm in men or 88 cm in women. Patients under pharmacological treatment with platelet antiaggregants (aspirin, clopidogrel, ticlopidine, prasugrel, ticagrelor), with anticoagulants (e.g. warfarin) or with oral contraceptives, were excluded. Other exclusion criteria were: events of myocardial infarction, coronary revascularization (percutaneous or surgical), infarction, temporary ischemic attack, peripheral vascular pathology, and the consumption of corticosteroids and/or non-steroidal anti-inflammatory drugs in the last month.
(§2) The experimentation was conducted on 100 subjects. […]
(§3) PA was determined by means of light transmission aggregometry according to standard protocols. […] The aggregation was measured at 37°C with a PACKS-4 aggregometer (Helena Laboratories). The curves were recorded for 6 min. The aggregation was measured at a maximum aggregation (maximum PA) and at 5 min (delayed PA). […]

[2] = tested on: platelet aggregation (PA); assay: Phase II study: ADP-induced platelet aggregation by light transmission aggregometry; assay type: in vivo, human; settings: platelets stimulated with 5 µM ADP
Protocol: as §1, §2, §3

[3] = Oxidation stability as antioxidant power against the DPPH radical; assay type: physicochemical; settings: 100 µM DPPH in methanol, 15 min in the dark at room temperature, 515 nm
Protocol: The oxidation stability of the compounds of formula (I) was evaluated as a function of their antioxidant power, determined as the reactivity of the compound against the stable radical 2,2-diphenyl-1-picrylhydrazyl (DPPH) in solution. High reactivity means poor stability under oxidizing conditions.
A 100 µM solution of DPPH in methanol, prepared from a 1 mM solution, then diluted at 1:10 was used for the determination.
The following final dilutions (from a solution in methanol having a double concentration) of the compound of formula (I) to be analyzed were prepared: 500 µg/mL, 100 µg/mL, 50 µg/mL, 10 µg/mL, 5 µg/mL, 2.5 µg/mL, 1 µg/mL, 0.5 µg/mL, 0.1 µg/mL, 0.05 µg/mL, 0 µg/mL.
500 µl of the compound to be tested at a certain concentration and 500 µl of DPPH were placed in a cuvette, they were all mixed and incubated in the dark at room temperature for 15 min.
The solution was analyzed with a spectrophotometer at a wavelength of 515 nm (methanol as white).
The color in the cuvettes varies from violet (DPPH without compound of formula (I)) to straw-yellow (DPPH with maximum inhibitory concentration of the compound of formula (I)).
The percent inhibition of the radical reaction is defined as: [(Absmax(DPPHalone)−Abs(DPPH+compound))/Absmax] × 100. [formula] […]

[4] = Stability in gastric fluids (SGF), HPLC; assay type: in vitro ADME; settings: pH=1.6
Protocol: (§4) The stability of the compounds of formula (I) was measured under physiological conditions.
(§5) The stability measurement was conducted by means of analytic HPLC techniques with a UV detector at 330 nm. The half-life is reported (in hours).

[5] = Stability in fasted intestinal fluid (FASSIF), HPLC; assay type: in vitro ADME; settings: pH=6.5
Protocol: as §4, §5

[6] = Stability in fed intestinal fluid (FESSIF), HPLC; assay type: in vitro ADME; settings: fed-state simulated intestinal fluid (FESSIF), pH=5, read-out: FESSIF t1/2
Protocol: as §4, §5

Stability in blood, HPLC = assay type: in vitro ADME
Protocol: as §4, §5

[7] = Metabolism in human liver; assay type: in vitro ADME
Description: Moreover, it has also been determined that the derivatives (B), (C) and (D) are metabolized in human liver, whereas verbascoside (derivative (A)) is stable.

Inhibitory activity (IC50) [3]: 2 µg/mL
SGF t1/2 [4]: STABLE
FASSIF t1/2 [5]: stable
half-life [6]: > 24 h
Blood t1/2 (Stability in blood, HPLC): stable
metabolized in human liver [7]: stable
Compound: C[C@@H]1O[C@@H](O[C@@H]2[C@@H](O)[C@H](OCCc3ccc(O)c(O)c3)O[C@H](CO)[C@H]2OC(=O)/C=C/c2ccc(O)c(O)c2)[C@H](O)[C@H](O)[C@H]1O [(A), Verbascoside]
Arachidonic acid-induced maximum PA ([1]; after 2 weeks of 50 mg/day, time 0 value 50±9%, p=0.4): 48±10%
Arachidonic acid-induced maximum PA ([1]; after 2 weeks of 100 mg/day, time 0 value 51±13%, p<0.01): 39±15%
ADP-induced maximum PA ([2]; after 2 weeks of 50 mg/day, time 0 value 58±8%, p=0.5): 56±9%
ADP-induced maximum PA ([2]; after 2 weeks of 100 mg/day, time 0 value 60±12%, p<0.01): 49±15%
